Measurements: patent US20100292316A1, “IMPROVED THERAPEUTIC METHODS AND COMPOSITIONS COMPRISING CHROMAN RING COMPOUNDS” (Research Development Foundation, priority 2007, published 2010)

How the values were obtained:
survivin = assay: Survivin protein level by immunoblot; assay type: cell-based, human; conditions: LNCaP and PC-3-GFP cells, 40 μM α-TEA, time-dependent
Text: (§1) Antibodies to human Flip and survivin used in these experiments were purchased from Santa Cruz Biotechnology (Santa Cruz, Calif.).

TSP-1 = TSP-1 mRNA and protein levels in 66c1-4-GFP mouse mammary tumor cells; assay type: cell-based; conditions: 66c1-4-GFP cells, 40 μM α-TEA
NOXA = NOXA mRNA (RT-PCR) and protein (Western blot) levels; assay type: cell-based, human; conditions: for peak NOXA mRNA levels, fold higher than VEH control / NOXA protein levels, fold higher than VEH control: 40 μM α-TEA; for NOXA protein levels, fold higher than VEH control: 24 h
Protocol: Whole-cell protein extracts were prepared as described previously (Yu et al., 1999), and 50 μg of protein was loaded per lane, separated using SDS-PAGE on a 10-15% gel under reducing conditions, and electroblotted onto a nitrocellulose membrane ([…] Optitran BA-S-supported nitrocellulose; Schleicher and Schuell, Keene, N.H.). Equal loading was verified using GAPDH antibody. Primary rabbit antibodies with specificity for PARP and primary goat antibody with specificity for Arg were purchased from Santa Cruz Biotechnology (Santa Cruz, Calif.). Horseradish peroxidase conjugated goat anti-rabbit or horseradish goat anti-mouse secondary antibody was purchased from Jackson Immunoresearch Laboratory (West Grove, Pa.). Horseradish peroxidase-conjugated donkey anti-goat serum was purchased from Santa Cruz Biotechnology. Immune complexes were visualized using enhanced chemiluminescence detection (Pierce Chemical Co., Rockford, Ill.). Fold differences in level of chemiluminescence were determined by densitometric analyses.
Total RNA was isolated from cells using RNeasy Protect Mini kit (Qiagen, Valencia, Calif.) according to manufacturer's instruction. Reverse transcription was performed as described above except using 15 μg of total RNA as template. Polymerase chain reaction (PCR) with Arg primers 30 cycles in volumes of 50 μl according to the manufacturer's protocol (Taq PCR Master Mix Kit; Qiagen, Valencia, Calif.). Primers used in the analyses were: Arg, forward (5′-CAGTGATGCCTCCACCTCAA-3′; SEQ ID NO:2) and reverse (5′-TTTCCCTCTCCCCTCAGAAAT-3′; SEQ ID NO:3) and for β-actin (loading control), forward (5′-GGCGGCACCACCATGTACCCT-3′; SEQ ID NO:4) and reverse (5′-AGGGGCCGGACTCGTCATACT-3′; SEQ ID NO:5) (Invitrogen, Carlsbad, Calif.). The amplification reaction involved denaturation at 95° C. for 30 seconds, annealing at 52° C. for 30 seconds, and extension at 72° C. for 30 seconds (for Arg) using a PTC-225 thermal cycler (MJ Research, San Francisco, Calif.). The PCR products were resolved on 1% agarose gels and visualized by ethidium bromide staining.
To confirm the microarray data, semi-quantative RT-PCR and Western blot analyses were carried out to measure the change in mRNA and protein level of NOXA using estrogen nonresponsive MDA-MB-435 and estrogen responsive MCF-7 human breast cancer cells. Assays were preformed as describide above using NOXA specific antibodies (purchased from Santa Cruz Biotechnology (Santa Cruz, Calif.)) and NOXA sepcific PCR primers (forward (5′-CGTGTGTAGTTGGCATCTCC-3′) and reverse (5′-GCCCCAAGTAACCCTCCTAT-3′)). In MCF-7 cells, α-TEA induced NOXA mRNA starting at 3 h, peaking at 15 h (FIG. 9A, left top panel). In MDA-MB-435 cells, α-TEA induced NOXA mRNA starting at 3 h, peaking at 6 h (FIG. 9A, right top panel). In both cell lines, protein levels of NOXA were increased at 15 and 24 h after α-TEA treatments (FIG. 9C, top panel). […] In MCF-7 cells, peak NOXA mRNA levels at 15 h were 1.5-fold higher than the VEH control and NOXA protein levels at 24 h were 7.6-fold higher than the VEH control. Upregulation of NOXA protein levels is correlated with PARP cleavage which is an indicator of cells undergoing apoptosis (Wolf and Green, 1999) (FIG. 9C, second panel). GAPDH levels served to help verify lane loads (FIG. 9C, bottom panel). […] NOXA protein levels were also assessed in other cell lines including MDA-MB-231 and T47D human breast cancer cell lines, immortalized, but nontumorigenic MCF-10A breast epithelial cells as well as human normal mammary epithelial cell line (HMEC) (Table 3). The ability of α-TEA to induce NOXA and induce apoptosis plus the p53 status based on the literature is summarized (Table 3).

FlipL = FlipL protein level by immunoblot; assay type: cell-based, human; conditions: LNCaP and PC-3-GFP cells, 40 μM α-TEA, time-dependent
Text: as §1

Cc1c(C)c2c(c(C)c1OCC(=O)O)CC[C@@](C)(CCC[C@H](C)CCC[C@H](C)CCCC(C)C)O2 [α-TEA]
protein levels of survivin (survivin): downregulated | peak TSP-1 mRNA levels, fold of VEH control (TSP-1; 6 h): 2.4 fold | TSP-1 protein levels, fold of VEH control (TSP-1; 24 h): 7.8 fold | Ability of α-TEA to induce NOXA expression (NOXA; HMEC): No | Ability of α-TEA to induce NOXA expression (NOXA; MCF-7): Yes | peak NOXA mRNA levels, fold higher than VEH control (NOXA; MCF-7 cells, 15 h): 1.5 fold | NOXA protein levels, fold higher than VEH control (NOXA; MCF-7 cells): 7.6 fold | Ability of α-TEA to induce NOXA expression (NOXA; MCF-10A): Yes | Ability of α-TEA to induce NOXA expression (NOXA; MDA-MB-231): Yes | Ability of α-TEA to induce NOXA expression (NOXA; MDA-MB-435): Yes | peak NOXA mRNA levels, fold higher than VEH control (NOXA; MDA-MB-435 cells, 6 h): 2.6 fold | NOXA protein levels, fold higher than VEH control (NOXA; MDA-MB-435 cells): 16.8 fold | Ability of α-TEA to induce NOXA expression (NOXA; T47D): No | protein levels of FlipL (FlipL): downregulated
